Measured values reported in US9988623B2, “Methods of X-aptamer generation and compositions thereof” (Board of Regents of the University of Texas System, priority 2012, dated 2018).
Where “and” joins values, the source holds several entries; their conditions need not be identical. Equal entries are not always repeated. Oligonucleotides are written 5' to 3', each unit as a sugar letter and its base; * is a phosphorothioate linkage, no mark a phosphodiester; rarer units and linkages stand in square brackets, end groups in braces. Plain capitals give the bases only. d = 2'-deoxy (DNA)

B1: ESTA-1: ESTA-1 thioaptamer sequence (SEQ. ID. 32), IRdye 800-labelled, gold nanoparticle (FIG. 16) (nucleic acid)
DNA: CGCTCGGATCGATAAGCTTCGATCCCACTCTCCCGTTCACTTCTCCTCACGTCACGGATCCTCTAGAGCACTG
modifications: Thioaptamer, thioate positions not given here, IRdye 800 label, gold nanoparticle conjugate

Columns and labels:
CD44-HABD [1] = target: T1, CD44-HABD (Homo sapiens, UniProt P16070); test: Filter binding assay of biotinylated XAs with CD44-HABD
T1 construct: DNA encoding CD44-HABD (amino acid residues 20-178) was synthesized and cloned into expression vector pET19b; made in house
T1 sequence (P16070 20-178): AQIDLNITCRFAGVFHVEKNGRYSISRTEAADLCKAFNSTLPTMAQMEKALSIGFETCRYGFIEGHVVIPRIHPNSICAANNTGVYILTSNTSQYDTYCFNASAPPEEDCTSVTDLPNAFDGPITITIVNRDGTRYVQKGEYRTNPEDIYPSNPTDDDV
Method: Filter binding assay. The equilibrium binding constants of selected XAs for CD44-HABD were determined by a filter binding assay. The biotinylated XAs (1 nM) were incubated with varying concentrations of CD44-HABD in 50 μL of 20 mM Tris, pH 8.0, 150 mM NaCl for 40 min at room temperature and then transferred to a 96-well dot-blot apparatus and filtered under vacuum onto nitrocellulose membranes, which retain the CD44-HABD along with any bound XAs. The amount of biotinylated XA retained at each spot was determined by chemiluminescent detection using the Chemiluminescent Nucleic Acid Detection Module (Thermo Scientific) following the manufacturer's instructions. The chemiluminescent signals were collected on a Chemimager (Alpha Innotech). Image analysis and quantification of spot intensities were performed using ImageJ (version 1.42q). Binding analysis was based on the spot intensities on the nitrocellulose membranes with subtraction of background spot intensity due to the buffer effect from all the data points. Saturation binding curves were generated by using GraphPad Prism with curve fits assuming a single binding site. The NH2 XA column lists KDs for XAs where X=amino-dU. The ADDA XA column lists KDs for XAs where X=ADDA-dU.
The equilibrium binding constants of the small constructs were determined by the filter binding assay. The derived equilibrium binding constants of the above small XA constructs are shown below in Table 4.

CD44-HABD [2] = target: T1, CD44-HABD; test: 1H-NMR titration of CD44-HABD with ADDA (equilibrium dissociation constant); assay type: binding
Method: ADDA binding to CD44-HABD. CD44-HABD was prepared in the NMR buffer (20 mM Tris, 50 mM NaCl, 5% (v/v) D2O, pH 6.7). ADDA was dissolved in DMSO (1.4 M) as stock solution. The ADDA sample for NMR was prepared in the same buffer (20 mM Tris, 50 mM NaCl, 1.25 mM ADDA, 0.1% (v/v) DMSO, 5% (v/v) D2O, pH 6.7). CD44-HABD (27 μM) with various concentration of ADDA (14 μM, 25 μM, 50 μM, 250 μM and 1250 μM) was also prepared in the same buffer. The ^1H-NMR spectra of CD44-HABD only, ADDA only and CD44-HABD in presence of ADDA were obtained.
The equilibrium dissociation constant of ADDA to CD44-HABD was determined by ^1H-NMR.

[3] = test system: human pancreatic cancer xenograph; test: Near infrared imaging of IR800dye-labeled thioaptamer in mouse xenograft; assay type: in vivo; details: mouse with human pancreatic cancer xenograph
Excerpt: Use of Thioaptamers in vivo.

[4] = permonothioated full-length XA, X = ADDA-dU, read-out: KD (nM) ADDA XA
[5] = permonothioated full-length XA, X = amino-dU, read-out: KD (nM) NH2 XA

| Molecule | Kd (CD44-HABD [1]; [4]) [nM] | Kd (CD44-HABD [1]; [5]) [nM] | other results |
| --- | --- | --- | --- |
| 1 (DNA AAGGGAACCAAGGACACTAC; DNA, backbone not given here; tested as phosphodiester and as thiophosphate form) [Motif 1] | – | – | Kd (CD44-HABD [1]; truncated motif without X, phosphate backbone, read-out: Dissociation constant (nM), phosphoaptamer form): 10.3 ± 1.3 nM; Kd (CD44-HABD [1]; truncated motif without X, thiophosphate backbone, read-out: Dissociation constant (nM), thioaptamer form): 15 ± 2 nM |
| CC(=O)N[C@H]1[C@H]([C@H](O)[C@H](O)CO)OC(C(=O)O)=C[C@@H]1O [ADDA, N-acetyl-2,3-dehydro-2-deoxyneuraminic acid] | – | – | Kd (CD44-HABD [2]; 1H-NMR peak 7.7925 ppm, read-out: KD): 3080 µM; Kd (CD44-HABD [2]; 1H-NMR peak 7.9025 ppm, read-out: KD): 1440 µM; Kd (CD44-HABD [2]; 1H-NMR peak 7.9225 ppm, read-out: KD): 1720 µM; Kd (CD44-HABD [2]; 1H-NMR peak 7.9375 ppm, read-out: KD): 1920 µM; Kd (CD44-HABD [2]; 1H-NMR peak 7.9575 ppm, read-out: KD): 1710 µM; Kd (CD44-HABD [2]; 1H-NMR peak 7.9925 ppm, read-out: KD): 3430 µM; Kd (CD44-HABD [2]; average over the six selected 1H-NMR peaks, read-out: Average KD): 2220 µM and ~2000 µM |
| XA2: permonothioated X-aptamer to CD44-HABD, SEQ ID NO 13; X = amino-dU or ADDA-dU (DNA NGCAGATCTGCAAGGGAACCAAGGACACTA; phosphorothioate; amino-dU or ADDA-dU modified; (1)..(1) n = X = 5-(aminoethyl-3-acrylimido)- deoxyuridine) | 78.3 ± 18.1 | 55.5 ± 13.4 | – |
| XA3: permonothioated X-aptamer to CD44-HABD, SEQ ID NO 14; X = amino-dU or ADDA-dU (DNA CCAAGGCCTGCAAGGGAACCAAGTCCANTA; phosphorothioate; amino-dU or ADDA-dU modified; (28)..(28) n = X = 5-(aminoethyl-3-acrylimido)- deoxyuridine) | 140 ± 16.8 | 111 ± 18.5 | – |
| XA6: permonothioated X-aptamer to CD44-HABD, SEQ ID NO 17; X = amino-dU or ADDA-dU (DNA TTGGGGCCTGCAAGACGACCNAAACGANGA; phosphorothioate; amino-dU or ADDA-dU modified; (21)..(21) n = X = 5-(aminoethyl-3-acrylimido)- deoxyuridine; (28)..(28) n = X = 5-(aminoethyl-3-acrylimido)- deoxyuridine) | 150 ± 25.7 | 214 ± 31.6 | – |
| XA7: permonothioated X-aptamer to CD44-HABD, SEQ ID NO 18; X = amino-dU or ADDA-dU (DNA NNAAGACGCANTAANGAACCAAGGACGTGA; phosphorothioate; amino-dU or ADDA-dU modified; (1)..(2) n = X = 5-(aminoethyl-3-acrylimido)- deoxyuridine; (11)..(11) n = X = 5-(aminoethyl-3-acrylimido)- deoxyuridine; (15)..(15) n = X = 5-(aminoethyl-3-acrylimido)- deoxyuridine) | 116 ± 20.7 | 306 ± 69.3 | – |
| XA8: permonothioated X-aptamer to CD44-HABD, SEQ ID NO 19; X = amino-dU or ADDA-dU (DNA CCAAGATCNGNAAGGTANCCGGGGACNG; phosphorothioate; amino-dU or ADDA-dU modified; (9)..(9) n = X = 5-(aminoethyl-3-acrylimido)- deoxyuridine; (11)..(11) n = X = 5-(aminoethyl-3-acrylimido)- deoxyuridine; (18)..(18) n = X = 5-(aminoethyl-3-acrylimido)- deoxyuridine; (27)..(27) n = X = 5-(aminoethyl-3-acrylimido)- deoxyuridine) | 274 ± 54.3 | 463 ± 82.4 | – |
| XA10: permonothioated X-aptamer to CD44-HABD, SEQ ID NO 21; X = amino-dU or ADDA-dU (DNA dT*dT*dG*dG*dG*dG*dC*dC*dC*dA*dG*dT*dA*dG*dG*dT*dA*dA*dC*dC*dG*dG*dG*dG*dA*dC*dA*dG; further chemistry not given here) | – | 450 ± 180 | – |
| XA11: permonothioated X-aptamer to CD44-HABD, SEQ ID NO 22; X = amino-dU or ADDA-dU (DNA TTGGGACGTAAGTAANGGGGGACANGA; phosphorothioate; amino-dU or ADDA-dU modified; (16)..(16) n = X = 5-(aminoethyl-3-acrylimido)- deoxyuridine; (25)..(25) n = X = 5-(aminoethyl-3-acrylimido)- deoxyuridine) | 1090 ± 390 | 846 ± 151 | – |
| XA12: permonothioated X-aptamer to CD44-HABD, SEQ ID NO 23; X = amino-dU or ADDA-dU (DNA NNAAGGCCNGNTAAANGATATCCACTA; phosphorothioate; amino-dU or ADDA-dU modified; (1)..(2) n = X = 5-(aminoethyl-3-acrylimido)- deoxyuridine; (9)..(9) n = X = 5-(aminoethyl-3-acrylimido)- deoxyuridine; (11)..(11) n = X = 5-(aminoethyl-3-acrylimido)- deoxyuridine; (16)..(16) n = X = 5-(aminoethyl-3-acrylimido)- deoxyuridine) | 879 ± 135 | 963 ± 183 | – |
| XA13: permonothioated X-aptamer to CD44-HABD, SEQ ID NO 24; X = amino-dU or ADDA-dU (DNA NGCAGATCTGCAAGGGAAAGATAGACACAG; phosphorothioate; amino-dU or ADDA-dU modified; (1)..(1) n = X = 5-(aminoethyl-3-acrylimido)- deoxyuridine) | 312 ± 68.5 | 1380 ± 237 | – |
| B1 | – | – | accumulation in tumor (near infrared image) [3]: accumulates in the tumor |
